Measured values: patent US9278120B2, “Inflammatory eye disorders” (Massachusetts Eye and Ear Infirmary, priority 2012, dated 2016)

Key:
[1] = Visual acuity in limbal stem cell insufficiency (LSCI) patients treated with topical steroid drops; assay type: in vivo, human; conditions: OU
Description: (§1) In these experiments, the clinical charts and images of three patients diagnosed with LSCI were retrospectively reviewed. […] The patients were followed monthly until resolution. The patients were treated with topical steroid drops based on in vivo confocal microscopy findings that indicate the presence of inflammation. […] The images were quantified for dendritiform immune cell density (DC) and total counts of nerves and branches with respective density with ImageJ/Neuron J software.

[2] = tested on: dendritic cells in the central cornea and superior limbus; assay: In vivo confocal microscopy of dendritiform immune cell density in LSCI patients; parameters: species or system human; conditions: for average density of dendritic cells in the superior limbus: after treatment, pooled LSCI subjects (loteprednol etabonate or rimexolone); for average dendritic cell density in the cornea: following three months of treatment, pooled LSCI subjects (loteprednol etabonate 4 eyes, rimexolone 2 eyes), 577.4±323.8 at presentation, p=0.001
Description: as §1

Row | Compound | visual acuity after treatment ([1]; LSCI Patient 2, 0.5% QID initially, then taper for 11 months, 20/20 OD and 20/60 OS at presentation) | visual acuity after treatment ([1]; LSCI Patient 3, 0.5% QID initially, then taper for 4 months, 20/30 OD and 20/20 OS at presentation) | average density of dendritic cells in the superior limbus [2] [cells/mm^2] | average dendritic cell density in the cornea [2] [cells/mm^2] | visual acuity after treatment ([1]; LSCI Patient 1, 1% QID initially, then taper for 5 months, 20/25 OD and 20/40 OS at presentation)
1 | CCOC(=O)O[C@]1(C(=O)OCCl)CC[C@H]2[C@@H]3CCC4=CC(=O)C=C[C@]4(C)[C@H]3[C@@H](O)C[C@@]21C [loteprednol etabonate] | 20/20 | 20/20 | 238.2±158.4 | 234.6±233.7 | 
2 | CCC(=O)[C@@]1(C)[C@H](C)C[C@H]2[C@@H]3CCC4=CC(=O)C=C[C@]4(C)[C@H]3[C@@H](O)C[C@@]21C [rimexolone] |  |  | 238.2±158.4 | 234.6±233.7 | 20/20
